# Assay results taken from patent publication US20210244791A1, “APPLICATION OF PEDF-DERIVED SHORT PEPTIDES IN TENDON HEALING” (BRIM Biotechnology, Inc., priority 2018, published 2021).
# Legend:
# Primary rabbit TSPC = experiment: TSPC cell proliferation assay (fluorometric kit); format: cell-based; conditions: 10 μM peptide, low serum media, PDSP solvent (DMSO) set as 100%, mean±SE of three experiments
# Method: Primary rabbit TSPC were cultured to near-confluence in a 75T cell culture flask and then verified by immunostaining of a TSPC marker, nucleostemin (>98%; green color). Nuclei were stained with Hoechst 33258 (blue color) and visualized by an epifluorescence microscopy. The nucleostemine-positive TSPC were treated with 10 μM 29-mer or its variants for 24 h. The numbers of TSPC after 24-h expansion were detected with a cell proliferation assay kit (BioVision; catalog number: K307). The TSPC treated with PDSP solvent was set as 100%. Results are expressed as mean±SE of three independent experiments.
# Achilles tendons from New Zealand White rabbits (6-8 months old, 3.0-4.0 kg) were used in this study. Achilles tendons were washed two times with sterile phosphate-buffered saline (PBS) containing 50 μg/ml gentamicin. The tendon and tendon sheath were cut into small pieces (1-2 mm^3). Each 100 mg of fragment was then digested in a solution containing 3 mg/ml of type I collagenase and 4 mg/ml of dispase in 1 ml balance salt solution (BSS; Alcone) at 37° C. for 4 hours. The digested tissues were washed three times with PBS and collected by centrifugation (800 g for 10 min). The digested tissues were placed in tissue-culture plates (Falcon Labware; NJ, USA) and resuspended in high-glucose DMEM supplemented with 10% FBS and 50 μg/ml gentamycin, and maintained at 37° C. with 5% CO2. After 5 days, the medium was changed to remove the loosened tissue residues. Subsequently, tendon cells were incubated with 10% FBS medium for 2 days, and then cultured with a basal medium (2% FBS, 1% ITSE, 300 μg/ml L-glutamine, 1% antibiotic-antimicotic solutions) for further 10 days. Culture medium was changed every 3 days. For passage, tendon cells were harvested with 0.25% trypsin/EDTA, cell counting by haemocytometer, approximately 5×10^3 cells were seeded in each well of a 96-well cell culture plate or 2×10^5 cells were seeded in each well of a 6-well cell culture plate for 24 h. These expanded tendon cells were then treated with 10 μM 29-mer or its variants in fresh basal medium for further 24 h and subjected to cell proliferation assay and western blot analysis, respectively.
# Cell Proliferation Assay Kit (Fluorometric) was purchased from BioVision (Catalog #: K307) and used to evaluate cell proliferation according to the manufacturer's recommendations. The fluorescence was read at 480 nm for excitation and 538 nm for emission on a SPECTRAmax GEMINI XS fluorescence microplate spectrophotometer (Molecular Devices, Sunnyvale, Calif., USA).
# Rabbit TSPC isolation was described above. TSPC in low serum media were treated with 10 μM of one of the 29-mer variants for 24 h. Cell proliferation was examined by a cell proliferation kit based on a kit provided nuclear dye that specifically binds to nucleic acid in the cell and generates green fluorescence.
# CD146-positive TSPC = experiment: CD146 immunostaining of TSPC in injured Achilles tendon; format: in vivo, rat; conditions: 1 week after wounding; peptide/alginate gel; vehicle/alginate 38.3±7.8
# Method: (A) Representative CD146-stained longitudinal sections. (Original magnification×200). (B) The number of CD146-positive TSPC per 200×field of view on injured tendon sections. Data are reported as mean±SE. Total CD146^+ cells were evaluated from 6 sections/tendon specimen, with 3 rats in each group. *P<0.001 versus vehicle/alginate-treated tendon; #p <0.001 versus 29-mer/alginate-treated tendon.
# To investigate the effects of the 29-mer peptide on tendon healing, a rat model of Achilles tendon injury was established as reported by Orhan et al. (The effect of extracorporeal shock waves on a rat model of injury to tendon Achilles. A histological and biomechanical study. J. Bone Joint Surg. Br. 2004;.86(4):.613-618). Adult 10-week-old male Sprague-Dawley rats (initial body weight=312±11 g) were anesthetized by an intraperitoneal injection of xylazine (10 mg/kg). Then, the left tendo Achilles injury was created by full-thickness insertion of an 18-G needle through tendo Achilles 1 cm proximal to the calcaneum attachment site. This created a horizontal wound that was flanked by intact tendon tissue to prevent the retraction of severed ends. […]
# CD146 is one of the TSPC markers. […] To test the mechanism of the 29-mer-induced tendon repair, CD146 immunostaining of TSPC located at injured tendon was measured, at 1 week after wounding. […]
# [1] = tested on: cultured tendon stem/progenitor cells (TSPC); conditions: peptide added in culture medium; previous study; cited from earlier work
sequence,measurement,setting,value
"SLGAEQRTESIIHRALYYDLISSPDIHGT (listed as Homo sapiens) [29-mer, PEDF-derived short peptide, human PEDF residues 93-121]",TSPC proliferation (numbers of TSPC after 24-h expansion),Primary rabbit TSPC,135±6.1%
same,number of CD146-positive TSPC on injured tendon sections,CD146-positive TSPC,86.8±6.0 cells per 200× field
same,induction of cultured TSPC proliferation,[1],able to induce cultured tendon stem/progenitor cells (TSPC) proliferation
